For this series, the target named is T1, CYP2C8 (Homo sapiens, UniProt P10632).
T1 sequence (P10632 1-490): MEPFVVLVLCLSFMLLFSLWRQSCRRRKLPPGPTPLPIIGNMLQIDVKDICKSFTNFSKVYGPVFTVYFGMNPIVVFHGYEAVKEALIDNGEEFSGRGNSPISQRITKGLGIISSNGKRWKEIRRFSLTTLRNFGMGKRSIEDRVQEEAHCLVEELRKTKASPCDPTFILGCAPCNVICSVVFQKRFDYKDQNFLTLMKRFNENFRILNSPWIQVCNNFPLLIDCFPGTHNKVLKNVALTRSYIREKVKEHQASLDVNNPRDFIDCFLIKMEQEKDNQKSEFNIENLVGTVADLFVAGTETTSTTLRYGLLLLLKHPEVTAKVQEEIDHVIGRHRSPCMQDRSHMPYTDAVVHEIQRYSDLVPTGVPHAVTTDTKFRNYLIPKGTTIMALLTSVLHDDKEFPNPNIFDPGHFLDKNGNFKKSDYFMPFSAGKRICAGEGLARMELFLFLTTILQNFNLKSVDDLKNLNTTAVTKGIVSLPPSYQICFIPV
The series can be described thus: Inhibition of CYP2C8-catalyzed rosiglitazone 5-hydroxylation in human liver microsomes. It counts as in vitro ADME. More on the design: incubation mixtures containing pooled human liver microsomes (HLMs, XTreme 200, XenoTech); tissue XenoTech XTreme 200; host or cells: pooled human liver microsomes. From the text:
We used HLMs to determine the mechanisms and constants (Ki values) for […] A inhibition of CYP1A2, CYP2B6, CYP2C8, CYP2C9 and CYP3A. […] The substrates were used at concentrations approximately near to their respective Km values. […] The other conditions were the same as in the cytochrome P450 inhibition study. […] Phenomenex, Torrance, CA, USA) and analyzed using a Shimadzu LCMS 8060 triple-quadrupole mass spectrometer coupled with a Nexera X2 ultra high-performance liquid chromatography system (Shimadzu, Kyoto, Japan) equipped with an electrospray ionization interface. The mobile phase consisted of 0.1% formic acid in water (A) and 0.1% formic acid in acetonitrile (B). […] The flow rate was 0.2 mL/min. Electrospray ionization was performed in positive-ion mode at 4000 V or in negative-ion mode at -3500 V. The optimum operating conditions were determined as follows: vaporizer temperature, 300 °C; capillary temperature, 350 °C; collision gas (argon) pressure, 1.5 mTorr. Quantitation was conducted in selected reaction monitoring (SRM) modes with the precursor-to-product ion transition for each metabolite (Table 1 and Table 2). We analyzed the data with Shimadzu LabSolution LC-MS software. The IC50 values were calculated by WinNonlin software (Pharsight, Mountain View, CA, USA). […]

Molecules are shown by their SMILES.

The term Ki denotes the equilibrium dissociation constant of an inhibitor or competing ligand from its target. Regarding `O=C1CC(c2cc(-c3c(O)ccc4c(=O)cc(-c5ccc(O)cc5)oc34)c(O)cc2O)Oc2cc(O)cc(O)c21` (centres unmarked) [selamariscina A], the Ki (HLMs, average ± standard error, triplicate) is 10 ± 3 nM. Further, the “Mode of Inhibition, CYP2C8 rosiglitazone” value (microsomes) is listed as “Noncompetitive, partial”.
